Reference: patent US10456509B2, “Chlorhexidine gluconate compositions, resin systems and articles” (3M INNOVATIVE PROPERTIES COMPANY, priority 2012, dated 2019)
Where a name gives a salt, the structure may show the parent alone. Read-outs that look alike come from different tables or passages of the source.

Experiments:
[1] = Solubility of lyophilized CHG in vehicles, Lyophilization Method; details: for Apparent solubility 2 minutes / Apparent solubility 2 hours 50° C. / Apparent solubility >24 hours / Apparent solubility after cooling / Apparent solubility immediate: 0.2 wt. % lyophilized CHG; for Apparent solubility 2 minutes: after 2 minutes; for Apparent solubility 2 hours 50° C.: after 2 hours in 50° C. oven; for Apparent solubility >24 hours: after 24 hours; for Apparent solubility after cooling: after cooling to room temperature; for Apparent solubility immediate: observed immediately after mixing
Method: The Lyophilization Method. Lyophilized CHG was prepared by freeze-drying the aqueous CHG solution (20 wt. % solution in water, obtained from Xttrium Laboratories Inc., Chicago, Ill.).
For lower viscosity vehicles, a 5 ml sample of the non-aqueous vehicle of interest was measured into a glass vial. For higher viscosity vehicles that were difficult to transfer by volume, a 5 gm sample was weighed into the vial. Next, 0.01 g of lyophilized CHG was added to the vial. The sample was capped and mixed by shaking for 30 seconds. The sample was immediately observed and then observed again after 2 minutes and again after 24 hours. After 24 hours, the sample was placed in a 50° C. oven for 2 hours and then removed and immediately observed. These samples were allowed to cool to room temperature and a final observation was made.
CHG solutions. The solutions containing CHG were either a 20 wt. % aqueous solution of CHG or a 10-20% w/w solution of CHG in a non-aqueous vehicle. The non-aqueous solutions were prepared by freeze drying the aqueous CHG solution to produce lyophilized CHG. Finely divided, lyophilized CHG was then solubilized in a non-aqueous vehicle at room temperature with continuous stirring for eight hours.

[2] = Solubility Screening of CHG in vehicles, Vacuum Method
Method: Solubility Screening. Screening tests were conducted to determine the solubility of CHG in a wide variety of vehicles. Tests were conducted using the Vacuum Method and the Lyophilizing Method.
Vacuum Method. […] The flask was put in a 60° C. oil bath and stirred with a magnetic stir bar. […] In those cases, after nearly all the water was removed, additional vehicle was added to bring the final weight to 50 grams. The resulting concentration of CHG and residual water were determined. Also, the final state of the solution was qualitatively evaluated to determine if the mixture was transparent and apparently homogenous, or clearly inhomogeneous.

Question: With PEG-20 glyceryl Triisostearate as the compound, how does the “Apparent solubility 2 minutes” value [1] read?
Answer: partial

Question: And the “Apparent solubility 2 hours 50° C.” value [1]?
Answer: partial

Question: What about the “Apparent solubility >24 hours” value [1] of the same compound?
Answer: partial

Question: And the “Apparent solubility after cooling” value [1]?
Answer: partial

Question: And the Apparent solubility immediate [1]?
Answer: no

Question: What does the source list for Glycereth-18 Ethylhexanoate?
Answer: Apparent solubility 2 minutes [1]: no; Apparent solubility 2 hours 50° C. [1]: soluble; Apparent solubility >24 hours [1]: soluble; Apparent solubility after cooling [1]: soluble; Apparent solubility immediate [1]: no

Question: For Diisostearyl dimerate, which “Apparent solubility 2 minutes” value [1] is on record?
Answer: no

Question: What about the “Apparent solubility 2 hours 50° C.” value [1] of the same compound?
Answer: soluble

Question: What about the “Apparent solubility >24 hours” value [1] of the same compound?
Answer: no

Question: And the “Apparent solubility after cooling” value [1]?
Answer: no

Question: And the Apparent solubility immediate [1]?
Answer: no

Question: Which “solubility of CHG in vehicle (dissolution experiments using lyophilized CHG)” value (from here on “solubility of CHG in vehicle”) [1] does the source give for sorbitan trioleate here?
Answer: limited

Question: What does the source list for Oleth-2?
Answer: Apparent solubility 2 minutes [1]: no; Apparent solubility 2 hours 50° C. [1]: partial; Apparent solubility >24 hours [1]: no; Apparent solubility after cooling [1]: partial; Apparent solubility immediate [1]: no

Question: Which results are given for Isolaureth-10?
Answer: Final State [2]: Inhomogeneous; Apparent solubility 2 minutes [1]: no; Apparent solubility 2 hours 50° C. [1]: soluble; Apparent solubility >24 hours [1]: partial; Apparent solubility after cooling [1]: soluble; Apparent solubility immediate [1]: no

Question: For `CC(C)CCCCCCCCCCCCCCC(=O)OCC(COC(=O)CCCCCCCCCCCCCCC(C)C)(COC(=O)CCCCCCCCCCCCCCC(C)C)COC(=O)CCCCCCCCCCCCCCC(C)C` [Pentaerythritol tetraisostearate], which “Apparent solubility 2 minutes” value [1] is on record?
Answer: partial

Question: What about the “Apparent solubility 2 hours 50° C.” value [1] of the same compound?
Answer: partial

Question: And the “Apparent solubility >24 hours” value [1]?
Answer: partial

Question: What about the “Apparent solubility after cooling” value [1] of the same compound?
Answer: partial

Question: And the Apparent solubility immediate [1]?
Answer: partial

Question: What does the source list for PPG-5 Ceteth-20?
Answer: Final State [2]: Inhomogeneous; Apparent solubility 2 minutes [1]: no; Apparent solubility 2 hours 50° C. [1]: soluble; Apparent solubility >24 hours [1]: partial; Apparent solubility after cooling [1]: soluble; Apparent solubility immediate [1]: no

Question: What does the source list for `CC(C)CCCCCCCCCCCCCCCOC(=O)CCCCCCCCCCCCCCC(C)C` [Isostearyl isostearate]?
Answer: Apparent solubility 2 minutes [1]: no; Apparent solubility 2 hours 50° C. [1]: partial; Apparent solubility >24 hours [1]: no; Apparent solubility after cooling [1]: partial; Apparent solubility immediate [1]: no

Question: For `CC(C)CCCCCCCCCCCCCCC(=O)OCC(O)CO` (stereo not drawn) [GMIS-1, glycerol monoisostearate], which “solubility of CHG in vehicle” value [1] is on record?
Answer: limited

Question: Which results are given for `CCOC(=O)CC(CC(=O)OCC)(OC(C)=O)C(=O)OCC` [Acetyltriethyl citrate]?
Answer: Apparent solubility 2 minutes [1]: no; Apparent solubility 2 hours 50° C. [1]: soluble; Apparent solubility >24 hours [1]: partial; Apparent solubility after cooling [1]: partial; Apparent solubility immediate [1]: no

Question: With Octyldodeceth-10 as the compound, how does the “Apparent solubility 2 minutes” value [1] read?
Answer: partial

Question: What about the “Apparent solubility 2 hours 50° C.” value [1] of the same compound?
Answer: partial

Question: And the “Apparent solubility >24 hours” value [1]?
Answer: partial

Question: What about the “Apparent solubility after cooling” value [1] of the same compound?
Answer: partial

Question: And the Apparent solubility immediate [1]?
Answer: no

Question: Which “Final State” value ([2]; CHG 10 wt. % in vehicle, 80° C., Vacuum Method) does the source give for `CCCCCCCCCCCCCCCCCC(=O)OCC(O)CO` (stereo not drawn) [Glyceryl monostearate] here?
Answer: Homogeneous

Question: Which “CHG solubility in vehicle (trend)” value [2] does the source give for `CC(C)(O)C(C)(C)O` [2,3-dimethyl-2,3-butanediol] here?
Answer: do not always impart solubility

Question: What about the “Final State” value [2] of the same compound?
Answer: Inhomogeneous

Question: For Polyglycerol-3 Diisostearate, which “Apparent solubility 2 minutes” value [1] is on record?
Answer: no

Question: What about the “Apparent solubility 2 hours 50° C.” value [1] of the same compound?
Answer: soluble

Question: What about the “Apparent solubility >24 hours” value [1] of the same compound?
Answer: soluble

Question: What about the “Apparent solubility after cooling” value [1] of the same compound?
Answer: partial

Question: What about the Apparent solubility immediate [1] of the same compound?
Answer: no

Question: For `CC(C)CCCCCCCCCCCCCCC(=O)OCC(O)CO` (stereo not drawn) [GMIS-2, glycerol monoisostearate], which “solubility of CHG in vehicle” value [1] is on record?
Answer: good solvent for CHG

Question: For `COCCOCCOC` [Diethyleneglycol Dimethyl Ether], which “Final State” value [2] is on record?
Answer: Inhomogeneous

Question: Which “Final State” value [2] does the source give for `CC(O)C(C)O` (stereo not drawn) [2,3-butanediol] here?
Answer: Homogeneous

Question: With `CCCC(O)CO` (stereo not drawn) [1,2-pentanediol] as the compound, how does the “Final State” value ([2]; CHG 50 wt. % in vehicle, 23-50° C., Vacuum Method) read?
Answer: Homogeneous

Question: For Sorbeth-6, which “Final State” value [2] is on record?
Answer: Homogeneous

Question: What does the source list for `OCCCCCO` [1,5-pentanediol]?
Answer: CHG solubility in vehicle (trend) [2]: too widely separated to impart good solubility; Final State [2]: Inhomogeneous
